Test results reported in patent publication US6689754B1, “Heterocyclic glycyl β-alanine derivatives” (G. D. Searle & Co., priority 1998, dated 2004).
Structures can show the parent of a compound that is named as a salt.

Legend:
[1] = molecular target: T1, Human vitronectin receptor (αvβ3) (Homo sapiens, UniProt P05106+P06756); experiment: Vitronectin adhesion assay: solid phase receptor assay, competition with biotinylated vitronectin; type: binding; details: purified human vitronectin receptor; 1 nM biotinylated vitronectin
T1 construct: Human vitronectin receptor (αvβ3) was purified from human placenta; from tissue; host or cells: human placenta
Protocol: Vitronectin Adhesion Assay
Human vitronectin receptor (αvβ3) was purified from human placenta as previously described [Pytela et al., Methods in Enzymology, 144:475-489 (1987)]. Human vitronectin was purified from fresh frozen plasma as previously described [Yatohgo et al., Cell Structure and Function, 13:281-292 (1988)]. Biotinylated human vitronectin was prepared by coupling NHS-biotin from Pierce Chemical Company (Rockford, Ill.) to purified vitronectin as previously described [Charo et al., J. Biol. Chem., 266(3):1415-1421 (1991)]. Assay buffer, OPD substrate tablets, and RIA grade BSA were obtained from Sigma (St. Louis, Mo.). Anti-biotin antibody was obtained from Calbiochem (La Jolla, Calif.). Linbro microtiter plates were obtained from Flow Labs (McLean, Va.). ADP reagent was obtained from Sigma (St. Louis, Mo.).
This assay was essentially the same as previously reported [Niiya et al., Blood, 70:475-483 (1987)]. The purified human vitronectin receptor (αvβ3) was diluted from stock solutions to 1.0 μg/mL in Tris-buffered saline containing 1.0 mM Ca^++, Mg^++, and Mn^++, pH 7.4 (TBS^+++). The diluted receptor was immediately transferred to Linbro microtiter plates at 100 μL/well (100 ng receptor/well). The plates were sealed and incubated overnight at 4° C. to allow the receptor to bind to the wells. All remaining steps were at room temperature. The assay plates were emptied and 200 μL of 1% RIA grade BSA in TBS^+++ (TBS^+++/BSA) were added to block exposed plastic surfaces. Following a 2 hour incubation, the assay plates were washed with TBS^+++ using a 96 well plate washer. Logarithmic serial dilution of the test compound and controls were made starting at a stock concentration of 2 mM and using 2 nM biotinylated vitronectin in TBS^+++/BSA as the diluent. This premixing of labeled ligand with test (or control) ligand, and subsequent transfer of 50 μL aliquots to the assay plate was carried out with a CETUS Propette robot; the final concentration of the labeled ligand was 1 nM and the highest concentration of test compound was 1.0×10^−4 M. The competition occurred for two hours after which all wells were washed with a plate washer as before. Affinity purified horseradish peroxidase labeled goat anti-biotin antibody was diluted 1:3000 in TBS^+++/BSA and 125 μL were added to each well. After 30 minutes, the plates were washed and incubated with OPD/H2O2 substrate in 100 mM/L Citrate buffer, pH 5.0. The plate was read with a microtiter plate reader at a wavelength of 450 nm and when the maximum-binding control wells reached an absorbance of about 1.0, the final A450 were recorded for analysis. The data were analyzed using a macro written for use with the EXCELJ spreadsheet program. The mean, standard deviation, and % CV were determined for duplicate concentrations. The mean A450 values were normalized to the mean of four maximum-binding controls (no competitor added)(B-MAX). The normalized values were subjected to a four parameter curve fit algorithm [Rodbard et al., Int.

[2] = molecular target: T2, Human fibrinogen receptor IIb/IIIa (Homo sapiens, UniProt P05106+P08514); experiment: Purified IIb/IIIa receptor assay: solid phase receptor assay, competition with biotinylated vitronectin; type: binding; details: 1 nM biotinylated vitronectin
T2 construct: Human fibrinogen receptor ([…]) was purified from outdated platelets; from tissue; host or cells: outdated human platelets
From the text: Purified IIb/IIIa Receptor Assay
Human fibrinogen receptor ([…]) was purified from outdated platelets. (Pytela, R., Pierschbacher, M. D., Argraves, S., Suzuki, S., and Rouslahti, E. “Arginine-Glycine-Aspartic acid adhesion receptors”, Methods in Enzymology 144(1987):475-489.) Human vitronectin was purified from fresh frozen plasma as described in Yatohgo, T., Izumi, M., Kashiwagi, H., and Hayashi, M., “Novel purification of vitronectin from human plasma by heparin affinity chromatography,” Cell Structure and Function 13(1988):281-292. Biotinylated human vitronectin was prepared by coupling NHS-biotin from Pierce Chemical Company (Rockford, Ill.) to purified vitronectin as previously described. (Charo, I. F., Nannizzi, L., Phillips, D. R., Hsu, M. A., Scarborough, R. M., “Inhibition of fibrinogen binding to GP IIb/IIIa by a GP IIIa peptide”, J. Biol. Chem. 266(3)(1991): 1415-1421.) Assay buffer, OPD substrate tablets, and RIA grade BSA were obtained from Sigma (St. Louis, Mo.). Anti-biotin antibody was obtained from Calbiochem (La Jolla, Calif.). Linbro microtiter plates were obtained from Flow Labs (McLean, Vs.). ADP reagent was obtained from Sigma (St. Louis, Mo.).
This assay is essentially the same reported in Niiya, K., Hodson, E., Bader, R., Byers-Ward, V. Koziol, J. A., Plow, E. F. and Ruggeri, Z. M., “Increased surface expression of the membrane glycoprotein IIb/IIIa complex induced by platelet activation: Relationships to the binding of fibrinogen and platelet aggregation”, Blood 70(1987):475-483. The purified human fibrinogen receptor ([…]) was diluted from stock solutions to 1.0 μg/mL in Tris-buffered saline containing 1.0 mM Ca^++, Mg^++, and Mn^++, pH 7.4 (TBS^+++). The diluted receptor was immediately transferred to Linbro microtiter plates at 100 μL/well (100 ng receptor/well). The plates were sealed and incubated overnight at 4° C. to allow the receptor to bind to the wells. All remaining Steps were at room temperature. The assay plates were emptied and 200 μL of 1% RIA grade BSA in TBS^+++ (TBS^+++/BSA) were added to block exposed plastic surfaces. Following a 2 hour incubation, the assay plates were washed with TBS^+++ using a 96 well plate washer. Logarithmic serial dilution of the test compound and controls were made starting at a stock concentration of 2 mM and using 2 nM biotinylated vitronectin in TBS^+++/BSA as the diluent. This premixing of labeled ligand with test (or control) ligand, and subsequent transfer of 50 μL aliquots to the assay plate was carried out with a CETUS Propette robot; the final concentration of the labeled ligand was 1 nM and the highest concentration of test compound was 1.0×10^−4 M. The competition occurred for two hours after which all wells were washed with a plate washer as before. Affinity purified horseradish peroxidase labeled goat anti-biotin antibody was diluted 1:3000 in TBS^+++/BSA and 125 μL were added to each well. After 30 minutes, the plates were washed and incubated with […] substrate in 100 mM/L citrate buffer, pH 5.0. The plate was read with a microtiter plate reader at a wavelength of 450 nm and when the maximum-binding control wells reached an absorbance of about 1.0, the final A450 were recorded for analysis. The data were analyzed using a macro written for use with the EXCELJ spreadsheet program. The mean, standard deviation, and % CV were determined for duplicate concentrations. The mean A450 values were normalized to the mean of four maximum-binding controls (no competitor added)(B-MAX). The normalized values were subjected to a four parameter curve fit algorithm, [Robard et al., Int. Atomic Energy Agency.

| SMILES | IC50 [1] [µM] | IC50 [2] [µM] |
| --- | --- | --- |
| Nc1ncc(C(=O)NCC(=O)NC(CC(=O)O)c2cc(Cl)cc(Cl)c2O)cc1NC1=NCC(O)CN1 (stereo not drawn) [Example 44] | 0.0421 | 1.06 |
| N=C(N)Nc1nc(C(=O)NCC(=O)NC(CC(=O)O)c2cccnc2)cs1 (stereo not drawn) [Example 8] | 0.0951 | 0.857 |
| N=C(N)Nc1cncc(C(=O)NCC(=O)NC(CC(=O)O)c2cc(Cl)cc(Cl)c2O)c1 (stereo not drawn) [Example 2] | 0.00132 | 0.272 |
| COc1ncc(C(=O)NCC(=O)NC(CC(=O)O)c2cc(Cl)cc(Cl)c2O)cc1NC1=NCCN1 (stereo not drawn) [Example 17, N-[[5-(4,5,-dihydro-1H-imidazol-2-yl)amino]-6-methoxy-3-pyridinyl]carbonyl]glycyl]-3-(3,5-dichloro-2-hydroxyphenyl)-β-alanine, bis(trifluoroacetate) salt] | 0.00046 | 0.724 |
| O=C(O)C[C@H](NC(=O)CNC(=O)c1csc(NC2=NCC(O)CN2)c1)c1cc(Cl)cc(Cl)c1O (stereo partly drawn) [Example 37] | 0.0638 | 0.267 |
| Cn1cc(C(=O)NCC(=O)NC(CC(=O)O)c2cc(Cl)cc(Cl)c2O)cc(NC2=NCCN2)c1=O (stereo not drawn) [Example 18, N-[[5-(4,5,-dihydro-1H-imidazol-2-yl)amino]-1,6-dihydro-1-methyl-6-oxo-3-pyridinyl]carbonyl]glycyl-3-(3,5-dichloro-2-hydroxyphenyl-β-alanine, (trifluoroacetate) salt] | 0.00043 | 0.798 |
| COc1ncc(N=C2NCCN2)cc1C(=O)NCC(=O)NC(CC(=O)O)c1cc(Cl)cc(Cl)c1O (stereo not drawn) [Example 22, N-[[(4,5,-dihydro-1H-imidazol-2-yl)amino]-2-methoxy-3-pyridinyl]carbonyl]glycyl-3-(3,5-dichloro-2-hydroxyphenyl)-β-alanine, (trifluoroacetate) salt] | 0.00696 | 1.71 |
| O=C(O)C[C@H](NC(=O)CNC(=O)c1cc(NC2=NCC(O)CN2)cs1)c1cc(Cl)cc(Cl)c1O (stereo partly drawn) [Example 12, (3S)-N-[[4-[(1,4,5,6-tetrahydro-5-hydroxy-2-pyrimidinyl)amino]-2-thienyl]carbonyl]glycyl-3-(3,5-dichloro-2-hydroxyphenyl)-β-alanine, trifluoroacetate salt] | 0.0045 | 0.442 |
| O=C(O)C[C@@H](NC(=O)CNC(=O)c1c[nH]c(=O)c(NC2=NCC(O)CN2)c1)c1cc(Cl)cc(Cl)c1O (stereo partly drawn) [Example 41] | 0.0102 | 35.4 |
| CC1(C)CN=C(Nc2cc(C(=O)NCC(=O)N[C@@H](CC(=O)O)c3cc(Cl)cc(Cl)c3O)c[nH]c2=O)NC1 [Example 47] | 0.00099 | 6.71 |
| O=C(O)CC(NC(=O)CNC(=O)c1cc(NC2=NCCN2)[nH]n1)c1cc(Cl)cc(Cl)c1O (stereo not drawn) [Example 25, N-[[5-[(4,5-dihydro-1H-imidazol-2-yl)amino]-1H-pyrazol-3-yl]carbonyl]-glycyl-3-(3,5-dichloro-2-hydroxyphenyl)-β-alanine, (trifluoroacetate) salt] | 1.87 | 3.91 |
| O=C(O)C[C@H](NC(=O)CNC(=O)c1cncc(NC2=NCC(O)CN2)c1)c1cc(Br)cc(Cl)c1O (stereo partly drawn) [Example 7] | 0.00021 | 0.361 |
| O=C(O)CC(NC(=O)CNC(=O)c1cc(NC2=NCCN2)cs1)c1cc(Cl)cc(Cl)c1O (stereo not drawn) [Example 13, N-[[4-[(4,5-dihydro-1H-imidazol-2-yl)amino]-2-thienyl]carbonyl]glycyl-3-(3,5-dichloro-2-hydroxyphenyl)-β-alanine, trifluoroacetate salt] | 0.00932 | 0.78 |
| O=C(O)C[C@H](NC(=O)CNC(=O)c1cc(NC2=NCC(O)CN2)[nH]c(=O)c1)c1cc(Cl)cc(Br)c1O (stereo partly drawn) [Example 43] | 0.0065 | 7.53 |

Next, values leading:

| IC50 [1] [µM] | IC50 [2] [µM] | SMILES |
| --- | --- | --- |
| 0.00034 | 0.462 | O=C(O)C[C@H](NC(=O)CNC(=O)c1cncc(N=C2NCC(O)CN2)c1)c1cc(Br)cc(Br)c1O (stereo partly drawn) [Example 11] |
| 0.00018 | 0.244 | O=C(O)C[C@H](NC(=O)CNC(=O)c1cncc(N=C2NCC(O)CN2)c1)c1cc(Cl)cc(Br)c1O (stereo partly drawn) [Example 9] |
| 0.0031 | 5.95 | O=C(O)C[C@H](NC(=O)CNC(=O)c1cc(NC2=NCC(O)CN2)[nH]c(=O)c1)c1cc(Cl)cc(Cl)c1O (stereo partly drawn) [Example 42] |
| 0.0124 | 0.772 | Cc1sc(C(=O)NCC(=O)N[C@@H](CC(=O)O)c2cc(Cl)cc(Cl)c2O)cc1NC1=NCC(O)CN1 (stereo partly drawn) [Example 14, (3S)-N-[[5-methyl-4-[(1,4,5,6-tetrahydro-5-hydroxy-2-pyrimidinyl)amino]-2-thienyl]carbonyl]glycyl-3-(3,5-dichloro-2-hydroxyphenyl)-β-alanine, trifluoroacetate salt] |
| 0.00042 | 0.884 | O=C(O)CC(NC(=O)CNC(=O)c1cncc(NC2=NCCN2)c1)c1cc(Cl)cc(I)c1O (stereo not drawn) [Example 5] |
| 0.00034 | 1.2 | O=C(O)C[C@H](NC(=O)CNC(=O)c1c[nH]c(=O)c(NC2=NCC(O)CN2)c1)c1cc(Br)cc(Cl)c1O (stereo partly drawn) [Example 34] |
| 0.00296 | 2.49 | O=C(O)CC(NC(=O)CNC(=O)c1cnc(Cl)c(NC2=NCCN2)c1)c1cc(Cl)cc(Cl)c1O (stereo not drawn) [Example 19, N-[[6-chloro-5-[(4,5,-dihydro-1H-imidazol-2-yl)amino]-3-pyridinyl]carbonyl]-glycyl-3-(3,5-dichloro-2-hydroxyphenyl)-β-alanine, (trifluoroacetate) salt, monohydrate] |
